Measurements as given in patent publication US20240059689A1, “PURINE DERIVATIVES AS ANTICANCER AGENTS” (Tango Therapeutics, Inc., priority 2021, published 2024).

Assays:
USP1-UAF1 = USP1-UAF1 (Homo sapiens, UniProt O94782); assay: Ubiquitin Rhodamine assay of USP1-UAF1 activity; format: biochemical
Method: Certain compounds of the disclosure were assessed for USP1-UAF1 activity in a Ubiquitin Rhodamine assay as described in Biology Example 1.

MDA-MB-436 = assay: Viability assay, BRCA1 mutant cell line MDA-MB-436; format: cell-based; settings: Homo sapiens, MDA-MB-436, viability, BRCA1 mutant MDA-MB-436; read-out: MDA-MB-436 rel IC50
From the text: (§1) Table 1 also indicates IC50 values in a viability assay for a non-isogenic pair of BRCA1 mutant (column 5-MDA-MB-436) and BRCA1 WT (column 6—HCC1954) cell lines. These values indicate the effect of treatment with compound on cell survival.

HCC1954 = assay: Viability assay, BRCA1 WT cell line HCC1954; format: cell-based; settings: Homo sapiens, HCC1954, viability, read-out: HCC1954 rel IC50
From the text: as §1

monoubiquitinated PCNA = assay: AlphaLISA assay measuring monoubiquitinated PCNA in MDA-MB-436; format: cell-based; settings: Homo sapiens, MDA-MB-436, monoubiquitinated PCNA, read-out: Alpha Lisa IC50
From the text: Table 1 also indicates IC50 values for exemplary compounds in an AlphaLISA assay measuring monoubiquitinated PCNA in a BRCA1 mutant cell line (MDA-MB-436; column 7).

Sequence of USP1-UAF1 (O94782 whole entry): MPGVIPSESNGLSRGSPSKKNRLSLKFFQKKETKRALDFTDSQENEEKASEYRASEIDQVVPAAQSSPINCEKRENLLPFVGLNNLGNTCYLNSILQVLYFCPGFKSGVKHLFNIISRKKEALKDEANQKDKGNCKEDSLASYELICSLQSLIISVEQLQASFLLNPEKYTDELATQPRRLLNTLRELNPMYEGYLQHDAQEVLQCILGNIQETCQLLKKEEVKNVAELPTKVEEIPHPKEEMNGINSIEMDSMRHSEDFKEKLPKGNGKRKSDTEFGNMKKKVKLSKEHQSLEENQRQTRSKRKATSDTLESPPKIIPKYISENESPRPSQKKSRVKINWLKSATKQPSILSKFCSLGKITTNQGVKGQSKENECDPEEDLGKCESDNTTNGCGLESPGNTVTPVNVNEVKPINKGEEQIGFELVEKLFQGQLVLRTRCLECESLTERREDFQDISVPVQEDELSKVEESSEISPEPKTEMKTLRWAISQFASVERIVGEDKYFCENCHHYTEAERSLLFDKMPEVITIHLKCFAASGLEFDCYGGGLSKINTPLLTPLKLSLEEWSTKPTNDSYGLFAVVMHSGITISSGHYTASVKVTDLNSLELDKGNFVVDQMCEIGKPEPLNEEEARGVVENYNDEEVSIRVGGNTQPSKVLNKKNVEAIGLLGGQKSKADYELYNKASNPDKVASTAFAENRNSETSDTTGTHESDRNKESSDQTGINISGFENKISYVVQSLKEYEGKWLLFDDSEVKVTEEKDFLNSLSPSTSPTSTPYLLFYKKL
Sequence of USP1-UAF1 (Q8TAF3 whole entry partner): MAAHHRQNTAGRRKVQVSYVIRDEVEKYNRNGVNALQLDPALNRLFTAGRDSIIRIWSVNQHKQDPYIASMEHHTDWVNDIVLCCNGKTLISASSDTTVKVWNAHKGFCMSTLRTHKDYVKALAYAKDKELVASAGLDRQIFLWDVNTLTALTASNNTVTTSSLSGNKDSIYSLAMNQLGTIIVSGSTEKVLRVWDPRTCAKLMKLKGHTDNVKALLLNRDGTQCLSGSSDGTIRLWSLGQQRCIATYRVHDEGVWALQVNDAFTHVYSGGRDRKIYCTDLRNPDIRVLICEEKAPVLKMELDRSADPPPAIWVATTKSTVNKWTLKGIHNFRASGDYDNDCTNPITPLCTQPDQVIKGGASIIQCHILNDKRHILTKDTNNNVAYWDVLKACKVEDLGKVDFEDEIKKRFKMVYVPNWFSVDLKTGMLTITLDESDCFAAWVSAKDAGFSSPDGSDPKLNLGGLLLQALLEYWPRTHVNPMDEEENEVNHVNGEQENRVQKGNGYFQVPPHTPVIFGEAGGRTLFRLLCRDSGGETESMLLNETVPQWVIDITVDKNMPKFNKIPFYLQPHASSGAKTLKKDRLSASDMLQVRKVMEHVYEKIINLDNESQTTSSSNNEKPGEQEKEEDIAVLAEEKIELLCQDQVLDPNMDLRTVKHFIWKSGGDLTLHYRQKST

COc1ncnc(C2CC2)c1-c1ncc2c(n1)n(Cc1ccc(-n3nc(C(F)F)cc3OC)cc1)c(=N)n2CC(F)(F)F [Example T-100, 2-(4-cyclopropyl-6-methoxy-pyrimidin-5-yl)-9-[[4-[3-(difluoromethyl)-5-methoxy-pyrazol-1-yl]phenyl]methyl]-7-(2,2,2-trifluoroethyl)purin-8-imine]
IC50 (USP1-UAF1): 100 to 10000 nM
IC50 (MDA-MB-436): 100 to 250 nM
IC50 (HCC1954): ≥ 10000 nM
IC50 (monoubiquitinated PCNA): 100 to 250 nM

COc1nc(C)nc(C2CC2)c1-c1ncc2c(n1)n(Cc1ccc(-c3nc(C(F)(F)F)cn3C)cc1)c(=N)n2CC(F)(F)F [Example T-102, 2-(4-cyclopropyl-6-methoxy-2-methyl-pyrimidin-5-yl)-9-[[4-[1-methyl-4-(trifluoromethyl)imidazol-2-yl]phenyl]methyl]-7-(2,2,2-trifluoroethyl)purin-8-imine]
IC50 (USP1-UAF1): 100 to 10000 nM
IC50 (MDA-MB-436): 100 to 250 nM
IC50 (HCC1954): ≥ 10000 nM
IC50 (monoubiquitinated PCNA): 250 to 10000 nM

Cn1cc(C(F)(F)F)nc1-c1ccc(Cn2c(=N)n(C)c3cnc(-c4c(C5CC5)ncnc4C(F)(F)F)nc32)cc1 [Example T-103, 2-(4-cyclopropyl-6-(trifluoromethyl)pyrimidin-5-yl)-7-methyl-9-(4-(1-methyl-4-(trifluoromethyl)-1H-imidazol-2-yl)benzyl)-7H-purin-8(9H)-imine]
IC50 (USP1-UAF1): 30 to 100 nM
IC50 (MDA-MB-436): 100 to 250 nM
IC50 (HCC1954): ≥ 10000 nM
IC50 (monoubiquitinated PCNA): 100 to 250 nM

COc1ncnc(C2CC2)c1-c1ncc2c(n1)n(Cc1ccc(-c3nc(C(F)(F)F)oc3C)cc1)c(=N)n2CC(F)(F)F [Example T-104, 2-(4-cyclopropyl-6-methoxy-pyrimidin-5-yl)-9-[[4-[5-methyl-2-(trifluoromethyl)oxazol-4-yl]phenyl]methyl]-7-(2,2,2-trifluoroethyl)purin-8-imine]
IC50 (USP1-UAF1): 100 to 10000 nM
IC50 (MDA-MB-436): 100 to 250 nM
IC50 (HCC1954): ≥ 10000 nM
IC50 (monoubiquitinated PCNA): 250 to 10000 nM

[2H]C([2H])([2H])Oc1ncnc(C2CC2)c1-c1ncc2c(n1)n(Cc1ccc(-c3nc(C(F)(F)F)cn3C)c(CC)c1)c(=N)n2CC(F)(F)F [Example T-105, 2-[4-cyclopropyl-6-(trideuteriomethoxy)pyrimidin-5-yl]-9-[[3-ethyl-4-[1-methyl-4-(trifluoromethyl)imidazol-2-yl]phenyl]methyl]-7-(2,2,2-trifluoroethyl)purin-8-imine]
IC50 (USP1-UAF1): 100 to 10000 nM
IC50 (MDA-MB-436): 250 to 10000 nM
IC50 (HCC1954): ≥ 10000 nM
IC50 (monoubiquitinated PCNA): 250 to 10000 nM

CCn1cc(C(F)(F)F)nc1-c1ccc([C@@H](C)n2c(=N)n(CC(F)(F)F)c3cnc(-c4c(OC)ncnc4C4CC4)nc32)cc1 [Example T-106, (R)-2-(4-cyclopropyl-6-methoxypyrimidin-5-yl)-9-(1-(4-(1-ethyl-4-(trifluoromethyl)-1H-imidazol-2-yl)phenyl)ethyl)-7-(2,2,2-trifluoroethyl)-7H-purin-8(9H)-imine]
IC50 (USP1-UAF1): < 30 nM
IC50 (MDA-MB-436): < 100 nM
IC50 (HCC1954): ≥ 10000 nM
IC50 (monoubiquitinated PCNA): < 100 nM

COc1ncnc(C2CC2)c1-c1ncc2c(n1)n(Cc1ccc(-c3nc(C(F)(F)F)cn3C)c(C)c1)c(=N)n2CC(F)(F)F [Example T-107, 2-(4-cyclopropyl-6-methoxy-pyrimidin-5-yl)-9-[[3-methyl-4-[1-methyl-4-(trifluoromethyl)imidazol-2-yl]phenyl]methyl]-7-(2,2,2-trifluoroethyl)purin-8-imine]
IC50 (USP1-UAF1): 100 to 10000 nM
IC50 (MDA-MB-436): 100 to 250 nM
IC50 (HCC1954): ≥ 10000 nM
IC50 (monoubiquitinated PCNA): 100 to 250 nM

COc1ncnc(C2CC2)c1-c1ncc2c(n1)n(Cc1ccc(-c3nc(C(F)(F)F)cn3C(C)C)cc1)c(=N)n2CC(F)(F)F [Example T-108]
IC50 (USP1-UAF1): 30 to 100 nM
IC50 (MDA-MB-436): < 100 nM
IC50 (HCC1954): ≥ 10000 nM
IC50 (monoubiquitinated PCNA): < 100 nM

COc1ncnc(C2CC2)c1-c1ncc2c(n1)n([C@H](C)c1ccc(-n3nc(C(F)(F)F)cc3OC)cc1)c(=N)n2CC(F)(F)F [Example T-109, 2-(4-cyclopropyl-6-methoxy-pyrimidin-5-yl)-9-[(1R)-1-[4-[5-methoxy-3-(trifluoromethyl)pyrazol-1-yl]phenyl]ethyl]-7-(2,2,2-trifluoroethyl)purin-8-imine]
IC50 (USP1-UAF1): < 30 nM
IC50 (MDA-MB-436): < 100 nM
IC50 (HCC1954): ≥ 10000 nM
IC50 (monoubiquitinated PCNA): < 100 nM
